Experimental data: the supplement of paper PMC12592484

What follows are compounds tested on 22Rv1 (assay: drug sensitivity score (DSS2, normalised partial AUC of dose-response, 72 h CellTiter-Glo viability) (DSS (dimensionless)); higher = more sensitive (stronger growth inhibition / cytotoxicity); extreme values may be limits of the assay).
Procedure, shortened: (§1)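 Low-passage primary prostate cancer-associated fibroblasts, PF179T, WPMY-1, LNCaP and 22Rv1 cells were seeded into 384-well plates carrying pre-dispensed compounds at five doses covering a 10,000-fold range. After 72 h, viability was read by CellTiter-Glo 2.0 luminescence. Responses were scaled to vehicle and positive-control wells. The drug sensitivity score (DSS2) is a partial area under the fitted logistic dose–response curve divided by the log of its upper asymptote, computed in BREEZE; higher means more sensitive.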

SMILES	drug sensitivity score
CC#CC(=O)N1CCC[C@H]1c1nc(-c2ccc(C(=O)Nc3ccccn3)cc2)c2c(N)nccn12 [Acalabrutinib] (tested concentration range 0.1-1000 nM)	0
COc1cc(C)c(/C=C/C(C)=C/C=C/C(C)=C/C(=O)O)c(C)c1C [Acitretin] (tested concentration range 1-10000 nM)	0
C=CCn1c(=O)c2cnc(Nc3ccc(N4CCN(C)CC4)cc3)nc2n1-c1cccc(C(C)(C)O)n1 [Adavosertib] (tested concentration range 1-10000 nM)	11.9
CN(C)C/C=C/C(=O)Nc1cc2c(Nc3ccc(F)c(Cl)c3)ncnc2cc1O[C@H]1CCOC1 [Afatinib] (tested concentration range 0.1-1000 nM)	3.4
Cn1ncc(Cl)c1-c1cc(C(=O)N[C@H](CN)Cc2cccc(F)c2)sc1Cl [Afuresertib] (tested concentration range 0.1-1000 nM)	4.6
CCc1cc2c(cc1N1CCC(N3CCOCC3)CC1)C(C)(C)c1[nH]c3cc(C#N)ccc3c1C2=O [Alectinib] (tested concentration range 0.1-1000 nM)	0.2
COc1cc(Nc2ncc3c(n2)-c2ccc(Cl)cc2C(c2c(F)cccc2OC)=NC3)ccc1C(=O)O [Alisertib] (tested concentration range 1-10000 nM)	0
Oc1ncnc2[nH]ncc12 [Allopurinol] (tested concentration range 1-10000 nM)	0
Cc1nc(NC(=O)N2CCC[C@H]2C(N)=O)sc1-c1ccnc(C(C)(C)C(F)(F)F)c1 [Alpelisib] (tested concentration range 0.2-2500 nM)	4.8
CN1CC[C@H](c2c(O)cc(O)c3c(=O)cc(-c4ccccc4Cl)oc23)[C@H](O)C1 [Alvocidib] (tested concentration range 1-10000 nM)	17.4
CCN(CC)CCNC(=O)c1c(C)[nH]c(/C=C2\C(=O)Nc3ccc(-c4csc(-c5ccccc5)n4)cc32)c1C [Amcasertib] (tested concentration range 1-10000 nM)	6.8
CCC1(c2ccc(N)cc2)CCC(=O)NC1=O (stereo unspecified) [Aminoglutethimide] (tested concentration range 1-10000 nM)	0
COc1cc(NS(C)(=O)=O)ccc1Nc1c2ccccc2nc2ccccc12 [Amsacrine] (tested concentration range 1-10000 nM)	10.1
O=C1CN2Cc3c(ccc(Cl)c3Cl)N=C2N1 [Anagrelide] (tested concentration range 1-10000 nM)	0
CC(C)(C#N)c1cc(Cn2cncn2)cc(C(C)(C)C#N)c1 [Anastrozole] (tested concentration range 1-10000 nM)	0
CNC(=O)c1ccc(N2C(=S)N(c3cnc(C#N)c(C(F)(F)F)c3)C(=O)C23CCC3)cc1F [Apalutamide] (tested concentration range 1-10000 nM)	0
N#CC1(c2ccc(NC(=O)c3cccnc3NCc3ccncc3)cc2)CCCC1 [Apatinib] (tested concentration range 1-10000 nM)	0
O=C(Nc1ccc(OC(F)(F)Cl)cc1)c1cnc(N2CC[C@@H](O)C2)c(-c2cc[nH]n2)c1 [Asciminib] (tested concentration range 0.1-1000 nM)	0
CC(C)c1c(C(=O)Nc2ccccc2)c(-c2ccccc2)c(-c2ccc(F)cc2)n1CC[C@@H](O)C[C@@H](O)CC(=O)O [Atorvastatin] (tested concentration range 1-10000 nM)	3.3
CC(=O)OC[C@H]1O[C@@H]([S-])[C@H](OC(C)=O)[C@@H](OC(C)=O)[C@@H]1OC(C)=O.CCP(CC)CC.[Au+] [Auranofin] (tested concentration range 0.2-2500 nM)	5.7
Cc1nc2cccc(N)c2c(=O)n1C1CCC(=O)NC1=O (stereo unspecified) [Avadomide] (tested concentration range 1-10000 nM)	0
CNC(=O)c1ccccc1Sc1ccc2c(/C=C/c3ccccn3)n[nH]c2c1 [Axitinib] (tested concentration range 1-10000 nM)	1.6
Nc1ncn([C@@H]2O[C@H](CO)[C@@H](O)[C@H]2O)c(=O)n1 [Azacitidine] (tested concentration range 1-10000 nM)	2.8
Cc1cc(-c2nc(-c3ccc(OC(F)(F)F)cc3)no2)nn1Cc1ccnc(N2CCN(C3CC3)CC2)c1 [BAY 87-2243] (tested concentration range 0.1-1000 nM)	19.8

These compounds were tested on CAF#1 (primary prostate cancer-associated fibroblasts of myCAF-like type) in the same assay as above.
Procedure, shortened: as §1

SMILES	drug sensitivity score
CC#CC(=O)N1CCC[C@H]1c1nc(-c2ccc(C(=O)Nc3ccccn3)cc2)c2c(N)nccn12 [Acalabrutinib] (tested concentration range 0.1-1000 nM)	0.1
COc1cc(C)c(/C=C/C(C)=C/C=C/C(C)=C/C(=O)O)c(C)c1C [Acitretin] (tested concentration range 1-10000 nM)	1.7
C=CCn1c(=O)c2cnc(Nc3ccc(N4CCN(C)CC4)cc3)nc2n1-c1cccc(C(C)(C)O)n1 [Adavosertib] (tested concentration range 1-10000 nM)	7.3
CN(C)C/C=C/C(=O)Nc1cc2c(Nc3ccc(F)c(Cl)c3)ncnc2cc1O[C@H]1CCOC1 [Afatinib] (tested concentration range 0.1-1000 nM)	0.3
Cn1ncc(Cl)c1-c1cc(C(=O)N[C@H](CN)Cc2cccc(F)c2)sc1Cl [Afuresertib] (tested concentration range 0.1-1000 nM)	3.2
CCc1cc2c(cc1N1CCC(N3CCOCC3)CC1)C(C)(C)c1[nH]c3cc(C#N)ccc3c1C2=O [Alectinib] (tested concentration range 0.1-1000 nM)	1
COc1cc(Nc2ncc3c(n2)-c2ccc(Cl)cc2C(c2c(F)cccc2OC)=NC3)ccc1C(=O)O [Alisertib] (tested concentration range 1-10000 nM)	4.9
Oc1ncnc2[nH]ncc12 [Allopurinol] (tested concentration range 1-10000 nM)	0
Cc1nc(NC(=O)N2CCC[C@H]2C(N)=O)sc1-c1ccnc(C(C)(C)C(F)(F)F)c1 [Alpelisib] (tested concentration range 0.2-2500 nM)	2.9
CN1CC[C@H](c2c(O)cc(O)c3c(=O)cc(-c4ccccc4Cl)oc23)[C@H](O)C1 [Alvocidib] (tested concentration range 1-10000 nM)	15.9
CCN(CC)CCNC(=O)c1c(C)[nH]c(/C=C2\C(=O)Nc3ccc(-c4csc(-c5ccccc5)n4)cc32)c1C [Amcasertib] (tested concentration range 1-10000 nM)	7
CCC1(c2ccc(N)cc2)CCC(=O)NC1=O (stereo unspecified) [Aminoglutethimide] (tested concentration range 1-10000 nM)	0
COc1cc(NS(C)(=O)=O)ccc1Nc1c2ccccc2nc2ccccc12 [Amsacrine] (tested concentration range 1-10000 nM)	3.2
O=C1CN2Cc3c(ccc(Cl)c3Cl)N=C2N1 [Anagrelide] (tested concentration range 1-10000 nM)	8.4
CC(C)(C#N)c1cc(Cn2cncn2)cc(C(C)(C)C#N)c1 [Anastrozole] (tested concentration range 1-10000 nM)	0
CNC(=O)c1ccc(N2C(=S)N(c3cnc(C#N)c(C(F)(F)F)c3)C(=O)C23CCC3)cc1F [Apalutamide] (tested concentration range 1-10000 nM)	0.2
N#CC1(c2ccc(NC(=O)c3cccnc3NCc3ccncc3)cc2)CCCC1 [Apatinib] (tested concentration range 1-10000 nM)	0
O=C(Nc1ccc(OC(F)(F)Cl)cc1)c1cnc(N2CC[C@@H](O)C2)c(-c2cc[nH]n2)c1 [Asciminib] (tested concentration range 0.1-1000 nM)	0.5
CC(C)c1c(C(=O)Nc2ccccc2)c(-c2ccccc2)c(-c2ccc(F)cc2)n1CC[C@@H](O)C[C@@H](O)CC(=O)O [Atorvastatin] (tested concentration range 1-10000 nM)	4.7
CC(=O)OC[C@H]1O[C@@H]([S-])[C@H](OC(C)=O)[C@@H](OC(C)=O)[C@@H]1OC(C)=O.CCP(CC)CC.[Au+] [Auranofin] (tested concentration range 0.2-2500 nM)	3.7
Cc1nc2cccc(N)c2c(=O)n1C1CCC(=O)NC1=O (stereo unspecified) [Avadomide] (tested concentration range 1-10000 nM)	0
CNC(=O)c1ccccc1Sc1ccc2c(/C=C/c3ccccn3)n[nH]c2c1 [Axitinib] (tested concentration range 1-10000 nM)	2.8
Nc1ncn([C@@H]2O[C@H](CO)[C@@H](O)[C@H]2O)c(=O)n1 [Azacitidine] (tested concentration range 1-10000 nM)	2.3
Cc1cc(-c2nc(-c3ccc(OC(F)(F)F)cc3)no2)nn1Cc1ccnc(N2CCN(C3CC3)CC2)c1 [BAY 87-2243] (tested concentration range 0.1-1000 nM)	0

These compounds were tested on CAF#2 (primary prostate cancer-associated fibroblasts of iCAF-like type) in the same assay as above.
Procedure, shortened: as §1

SMILES	drug sensitivity score
CC#CC(=O)N1CCC[C@H]1c1nc(-c2ccc(C(=O)Nc3ccccn3)cc2)c2c(N)nccn12 [Acalabrutinib] (tested concentration range 0.1-1000 nM)	0.4
COc1cc(C)c(/C=C/C(C)=C/C=C/C(C)=C/C(=O)O)c(C)c1C [Acitretin] (tested concentration range 1-10000 nM)	4
C=CCn1c(=O)c2cnc(Nc3ccc(N4CCN(C)CC4)cc3)nc2n1-c1cccc(C(C)(C)O)n1 [Adavosertib] (tested concentration range 1-10000 nM)	10.3
CN(C)C/C=C/C(=O)Nc1cc2c(Nc3ccc(F)c(Cl)c3)ncnc2cc1O[C@H]1CCOC1 [Afatinib] (tested concentration range 0.1-1000 nM)	0.3
Cn1ncc(Cl)c1-c1cc(C(=O)N[C@H](CN)Cc2cccc(F)c2)sc1Cl [Afuresertib] (tested concentration range 0.1-1000 nM)	1.5
CCc1cc2c(cc1N1CCC(N3CCOCC3)CC1)C(C)(C)c1[nH]c3cc(C#N)ccc3c1C2=O [Alectinib] (tested concentration range 0.1-1000 nM)	0.2
COc1cc(Nc2ncc3c(n2)-c2ccc(Cl)cc2C(c2c(F)cccc2OC)=NC3)ccc1C(=O)O [Alisertib] (tested concentration range 1-10000 nM)	9.4
Oc1ncnc2[nH]ncc12 [Allopurinol] (tested concentration range 1-10000 nM)	0
Cc1nc(NC(=O)N2CCC[C@H]2C(N)=O)sc1-c1ccnc(C(C)(C)C(F)(F)F)c1 [Alpelisib] (tested concentration range 0.2-2500 nM)	2.5
CN1CC[C@H](c2c(O)cc(O)c3c(=O)cc(-c4ccccc4Cl)oc23)[C@H](O)C1 [Alvocidib] (tested concentration range 1-10000 nM)	16.8
CCN(CC)CCNC(=O)c1c(C)[nH]c(/C=C2\C(=O)Nc3ccc(-c4csc(-c5ccccc5)n4)cc32)c1C [Amcasertib] (tested concentration range 1-10000 nM)	2.3
CCC1(c2ccc(N)cc2)CCC(=O)NC1=O (stereo unspecified) [Aminoglutethimide] (tested concentration range 1-10000 nM)	0
COc1cc(NS(C)(=O)=O)ccc1Nc1c2ccccc2nc2ccccc12 [Amsacrine] (tested concentration range 1-10000 nM)	6.7
O=C1CN2Cc3c(ccc(Cl)c3Cl)N=C2N1 [Anagrelide] (tested concentration range 1-10000 nM)	0.6
CC(C)(C#N)c1cc(Cn2cncn2)cc(C(C)(C)C#N)c1 [Anastrozole] (tested concentration range 1-10000 nM)	0
CNC(=O)c1ccc(N2C(=S)N(c3cnc(C#N)c(C(F)(F)F)c3)C(=O)C23CCC3)cc1F [Apalutamide] (tested concentration range 1-10000 nM)	0.8
N#CC1(c2ccc(NC(=O)c3cccnc3NCc3ccncc3)cc2)CCCC1 [Apatinib] (tested concentration range 1-10000 nM)	0
O=C(Nc1ccc(OC(F)(F)Cl)cc1)c1cnc(N2CC[C@@H](O)C2)c(-c2cc[nH]n2)c1 [Asciminib] (tested concentration range 0.1-1000 nM)	0
